Assay results taken from PubChem BioAssay (NCI).
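Where inhibition never reached the appropriate level, the endpoint shown equals the highest concentration tested. Otherwise, values were interpolated linearly from a five-concentration, 48-hour dose response in 96-well plates. GI50 is the concentration that inhibits growth by half. Definition used: TGI = concentration required for complete inhibition of growth.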

Experiments:
Assay in all cases: DTP human tumour cell line panel, 48 h
[1] = system: HOP-92 NSCLC
[2] = system: HCT-15 colon
[3] = system: TK-10 renal
[4] = system: PC-3 prostate
[5] = system: SR leukemia
[6] = system: MDA-MB-231 breast
[7] = system: HCT-116 colon
[8] = system: HS 578T breast
[9] = system: NCI-H460 lung
[10] = system: MOLT-4 leukemia
[11] = system: SK-OV-3 ovarian
[12] = system: MDA-MB-435
[13] = system: SN12C renal
[14] = system: SW-620 colon
[15] = system: RPMI-8226 leukemia
[16] = system: NCI-H522 lung
[17] = system: SK-MEL-2 melanoma
[18] = system: A498 renal
[19] = system: SF-268 CNS
[20] = system: DU-145 prostate
[21] = system: U251 CNS
[22] = system: MALME-3M melanoma
[23] = system: RXF 393 renal
[24] = system: CAKI-1 renal
[25] = system: BT-549 breast
[26] = system: K-562 leukemia
[27] = system: SNB-19 CNS
[28] = system: OVCAR-8 ovarian
[29] = system: KM12 colon
[30] = system: SF-539 CNS
[31] = system: M14 melanoma
[32] = system: MCF7 breast
[33] = system: NCI/ADR-RES ovarian
[34] = system: UACC-257 melanoma
[35] = system: NCI-H23 lung
[36] = system: IGROV1 ovarian
[37] = system: SNB-75 CNS
[38] = system: A549 NSCLC
[39] = system: OVCAR-3 ovarian
[40] = system: T-47D breast
[41] = system: HCC-2998 colon
[42] = system: NCI-H226 lung
[43] = system: OVCAR-5 ovarian
[44] = system: SK-MEL-5 melanoma
[45] = system: SF-295 CNS
[46] = system: HT29 colon
[47] = system: OVCAR-4 ovarian
[48] = system: SK-MEL-28 melanoma
[49] = system: UACC-62 melanoma
[50] = system: CCRF-CEM leukemia
[51] = system: LOX IMVI melanoma
[52] = system: ACHN renal
[53] = system: HL-60(TB) leukemia
[54] = system: COLO 205 colon
[55] = system: UO-31 renal
[56] = system: HOP-62 NSCLC
[57] = system: 786-0 renal

Molecule COc1ccc(C2=C(c3cn(C)c4ccccc34)C(=O)NC2=O)cc1 has a GI50 [1] of over 14.5 µM, a TGI [1] of over 25 µM and a GI50 [2] of 6.05 µM. For the same molecule, the TGI [2] was over 25 µM, the GI50 [3] was over 21 µM and the TGI [3] was over 25 µM. The GI50 [4] was over 21.9 µM, the TGI [4] was over 25 µM and the GI50 [5] was 6.14 µM. For the same molecule, the TGI [5] was over 25 µM, the GI50 [6] was over 25 µM and the TGI [6] was over 25 µM. For the same molecule, the GI50 [7] was 12.7 µM, the TGI [7] was over 25 µM and the GI50 [8] was 9.65 µM. The TGI [8] was over 25 µM, the GI50 [9] was 11.1 µM and the TGI [9] was over 25 µM. It also gave a GI50 [10] of 15.5 µM, a TGI [10] of over 25 µM and a GI50 [11] of 24.3 µM. It also gave a TGI [11] of over 25 µM, a GI50 [12] of 1.56 µM and a TGI [12] of over 14.7 µM. For the same molecule, the GI50 [13] was 24.5 µM, the TGI [13] was over 25 µM and the GI50 [14] was 8.95 µM. The TGI [14] was over 25 µM, the GI50 [15] was over 20.3 µM and the TGI [15] was over 25 µM. For the same molecule, the GI50 [16] was over 12.3 µM, the TGI [16] was over 25 µM and the GI50 [17] was 14.2 µM. For the same molecule, the TGI [17] was over 25 µM, the GI50 [18] was 6.74 µM and the TGI [18] was over 25 µM. For the same molecule, the GI50 [19] was over 20.9 µM, the TGI [19] was over 25 µM and the GI50 [20] was over 25 µM. For the same molecule, the TGI [20] was over 25 µM, the GI50 [21] was over 23.6 µM and the TGI [21] was over 25 µM. It also gave a GI50 [22] of over 25 µM, a TGI [22] of over 25 µM and a GI50 [23] of 10.6 µM. The TGI [23] was over 25 µM, the GI50 [24] was over 22.3 µM and the TGI [24] was over 25 µM. For the same molecule, the GI50 [25] was over 25 µM, the TGI [25] was over 25 µM and the GI50 [26] was 3.89 µM. For the same molecule, the TGI [26] was over 25 µM, the GI50 [27] was over 25 µM and the TGI [27] was over 25 µM. It also gave a GI50 [28] of over 25 µM, a TGI [28] of over 25 µM and a GI50 [29] of 8 µM. For the same molecule, the TGI [29] was over 25 µM, the GI50 [30] was 9.76 µM and the TGI [30] was over 25 µM. For the same molecule, the GI50 [31] was 19.4 µM, the TGI [31] was over 25 µM and the GI50 [32] was 8.03 µM. It also gave a TGI [32] of over 25 µM, a GI50 [33] of over 17.3 µM and a TGI [33] of over 25 µM. The GI50 [34] was over 25 µM, the TGI [34] was over 25 µM and the GI50 [35] was over 25 µM. It also gave a TGI [35] of over 25 µM, a GI50 [36] of over 25 µM and a TGI [36] of over 25 µM. For the same molecule, the GI50 [37] was 1.97 µM, the TGI [37] was over 25 µM and the GI50 [38] was 14.1 µM. The TGI [38] was over 25 µM, the GI50 [39] was 17 µM and the TGI [39] was over 25 µM. The GI50 [40] was over 24.1 µM, the TGI [40] was over 25 µM and the GI50 [41] was over 23.1 µM. For the same molecule, the TGI [41] was over 25 µM, the GI50 [42] was over 22.3 µM and the TGI [42] was over 25 µM. For the same molecule, the GI50 [43] was over 25 µM, the TGI [43] was over 25 µM and the GI50 [44] was over 18.4 µM. It also gave a TGI [44] of over 25 µM, a GI50 [45] of over 17 µM and a TGI [45] of over 25 µM. It also gave a GI50 [46] of 9.43 µM, a TGI [46] of over 25 µM and a GI50 [47] of over 14.6 µM. The TGI [47] was over 25 µM, the GI50 [48] was over 23 µM and the TGI [48] was over 25 µM. For the same molecule, the GI50 [49] was 13 µM, the TGI [49] was over 25 µM and the GI50 [50] was 16.3 µM. For the same molecule, the TGI [50] was over 25 µM, the GI50 [51] was 24.9 µM and the TGI [51] was over 25 µM. It also gave a GI50 [52] of over 25 µM, a TGI [52] of over 25 µM and a GI50 [53] of 14.5 µM. For the same molecule, the TGI [53] was over 25 µM, the GI50 [54] was 10.7 µM and the TGI [54] was over 25 µM. For the same molecule, the GI50 [55] was over 23.7 µM, the TGI [55] was over 25 µM and the GI50 [56] was over 23.1 µM. The TGI [56] was over 25 µM, the GI50 [57] was over 25 µM and the TGI [57] was over 25 µM.
